From patent publication US11840548B2, “UV-curable phosphonium small molecules as antimicrobial coatings and surface active additives” (SCI RESOURCE PLATFORM INC., priority 2020, dated 2023)
“Also recorded” adds a separate entry of the source.

Columns and labels:
[1] = tested on: E. coli (ATCC strain 11229); test: large drop inoculum (LDI) test, E. coli; format: cell-based; conditions: UV-cured coating on polystyrene plastic; after 24 hours in contact with the surface
Excerpt: To guarantee all inoculated cells enter into contact with the test surface, […], serially diluted, plated out onto tryptic soy agar, and enumerated to assess the extent of cell survival and thus antimicrobial efficacy of the test surfaces. Arthrobacter (IAI-3) and E. coli (ATCC strain 11229) were chosen as representative Gram-positive and Gram-negative bacterial strains.
The efficacy of these materials against the representative strains of Gram-negative and Gram-positive bacteria lead us to probe the antimicrobial capability of these materials after being subject to abrasive processes, to determine whether tethered sub-surface phosphonium observed by XPS can translate to materials with antimicrobial properties after the surface has be abraded. The process of using an aqueous solution to wipe or rub away dirt or bacteria is one fundamental to sanitation,^50 and as such the solvent double rub protocol described in ASTM D5402^51 was chosen as a representative test of durability. Water was chosen as the solvent due to its ubiquity in cleaning solutions. The same extruded polypropylene samples subjected to the LDI were first rinsed with copious amounts of sterile distilled water, then vortexed for 5 minutes in saline to remove any bacterial debris from the initial test. After another rinse step, the pieces were subjected to 100 solvent double rubs on the tested side using a cotton cloth saturated with distilled water, the amount of force of each rub measured to be between 1000 g and 1600 g. After 100 double rubs, the pieces were rinsed, sterilized under UV light, and the abraded sides were subject to another loading of bacteria.

[2] = tested on: Arthrobacter sp. (IAI-3); test: large drop inoculum (LDI) test, Arthrobacter; format: cell-based; conditions: UV-cured coating on polystyrene plastic; after 3 hours in contact with the surface
Protocol: To guarantee all inoculated cells enter into contact with the test surface, the samples with the droplet are subjected to a standardized 3 h drying period. The cells are then recovered, serially diluted, plated out onto tryptic soy agar, and enumerated to assess the extent of cell survival and thus antimicrobial efficacy of the test surfaces. Arthrobacter (IAI-3) and E. coli (ATCC strain 11229) were chosen as representative Gram-positive and Gram-negative bacterial strains.

[3] = advancing water contact angle measurement; format: physicochemical; conditions: UV-cured phosphonium coating on polystyrene; triplicate
Protocol: Advancing water contact angle (θC) measurements were performed on the coated pieces to further probe the relationship between the structure of the phosphonium small molecules coated on the substrate and their macroscopic properties as coatings. Measurements for θC trend with charge density results (Table 1).
Thus, after the coating step, a pre-extrusion UV-cure process was introduced to immobilize the phosphoniums to the plastic bead surface. Extrusion of these pre-cured beads at 220° C. into a mold pre-heated to 100° C. yielded the tributylphosphonium-containing plastic PP-2, triphenylphosphonium-containing PP-3, (FIG. 8) and perfluoroalkylphosphonium-containing PP-4 as off-white coloured “dogbone” pieces. The discoloration was due to the amber or off-white natural coloring of the phosphoniums added to the melt, and not UV or heat exposure. The effect of incorporating each phosphonium at 1% was quantified by advancing WCA (Table 1). […] FIG. 1 is a schematic illustration showing a cross section of antimicrobial-enriched plastic with sub-surface phosphonium, which upon abrasion is exposed and available to combat microbial growth.

| θc, advancing water contact angle [3] | Structure (SMILES) | reduction of viable Gram-negative E. coli cells [1] | reduction of viable Gram-positive Arthrobacter cells [2] |
| --- | --- | --- | --- |
| 71.9 ± 5.1 deg | C[P+](C)(C)CCCOc1ccc(C(=O)c2ccccc2)cc1.[Br-] [phosphonium 1] | failing to reduce bacterial survivability; also recorded: lack of observed antimicrobial activity | failing to reduce bacterial survivability; also recorded: lack of observed antimicrobial activity |
| 63.5±5.8 deg | O=C(c1ccccc1)c1ccc(OCCC[P+](c2ccccc2)(c2ccccc2)c2ccccc2)cc1.[Br-] [phosphonium 3] | full reductions | full reductions |
| 36.4±11.0 deg | CCCC[P+](CCCC)(CCCC)CCCOc1ccc(C(=O)c2ccccc2)cc1.[Br-] [phosphonium 2] | full reductions | full reductions |

| Structure (SMILES) | θc, advancing water contact angle [3] | reduction of viable Gram-negative E. coli cells [1] | reduction of viable Gram-positive Arthrobacter cells [2] |
| --- | --- | --- | --- |
| O=C(c1ccccc1)c1ccc(OCCC[P+](CCC(F)(F)C(F)(F)C(F)(F)C(F)(F)C(F)(F)C(F)(F)F)(c2ccccc2)c2ccccc2)cc1.[Br-] [phosphonium 4] | 68.0±2.0 deg | full reductions | full reductions |
